From patent publication US20210395313A1, “PEPTIDE PAC1 ANTAGONISTS” (AMGEN INC., priority 2017, published 2021)
Where a SMILES comes first, the peptide text is derived from it. Bridges are numbered along the chain shown (N, C = ends). Where no end group is shown, it is not given here.

Experiments:
human PAC1 receptor = target: T1, human PAC1 receptor (Homo sapiens, UniProt P41586); assay: LANCE Ultra cAMP accumulation antagonist assay in SHSY-5Y cells; assay type: cell-based;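 note: inhibition of cAMP accumulation evoked by PAC1 agonist at its EC80 in SHSY-5Y cells endogenously expressing receptor, 30 min preincubation then 15 min agonist, TR-FRET readout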
T1 construct: SHSY-5Y (human neuroblastoma cell line) and RG-2 (rat glioma cell line) cells endogenously express human and rat PAC1 receptors, respectively; endogenous in cells; host or cells: SHSY-5Y human neuroblastoma cells
T1 sequence (P41586 21-468): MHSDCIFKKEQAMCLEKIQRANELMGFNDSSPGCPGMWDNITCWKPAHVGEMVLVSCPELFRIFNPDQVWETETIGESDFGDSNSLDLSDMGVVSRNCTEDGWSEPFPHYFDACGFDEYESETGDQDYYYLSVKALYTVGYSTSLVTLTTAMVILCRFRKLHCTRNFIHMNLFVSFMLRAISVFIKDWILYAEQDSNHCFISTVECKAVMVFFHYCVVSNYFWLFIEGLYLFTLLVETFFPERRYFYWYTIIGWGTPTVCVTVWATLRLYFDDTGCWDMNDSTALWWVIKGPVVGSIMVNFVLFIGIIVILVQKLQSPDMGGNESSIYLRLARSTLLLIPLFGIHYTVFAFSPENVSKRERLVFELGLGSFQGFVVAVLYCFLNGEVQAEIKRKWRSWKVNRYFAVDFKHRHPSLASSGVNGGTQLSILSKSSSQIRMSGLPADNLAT

rat PAC1 receptor = target: T2, rat PAC1 receptor (Rattus norvegicus, UniProt P32215); assay: LANCE Ultra cAMP accumulation antagonist assay in RG-2 cells; assay type: cell-based;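 note: RG-2 rat glioma cells endogenously expressing PAC1, test peptide preincubated 30 min, then PAC1 agonist added at its EC80 for 15 min, cAMP accumulation read by LANCE Ultra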
T2 construct: SHSY-5Y (human neuroblastoma cell line) and RG-2 (rat glioma cell line) cells endogenously express human and rat PAC1 receptors, respectively; endogenous in cells; host or cells: RG-2 rat glioma cells
T2 sequence (P32215 20-523): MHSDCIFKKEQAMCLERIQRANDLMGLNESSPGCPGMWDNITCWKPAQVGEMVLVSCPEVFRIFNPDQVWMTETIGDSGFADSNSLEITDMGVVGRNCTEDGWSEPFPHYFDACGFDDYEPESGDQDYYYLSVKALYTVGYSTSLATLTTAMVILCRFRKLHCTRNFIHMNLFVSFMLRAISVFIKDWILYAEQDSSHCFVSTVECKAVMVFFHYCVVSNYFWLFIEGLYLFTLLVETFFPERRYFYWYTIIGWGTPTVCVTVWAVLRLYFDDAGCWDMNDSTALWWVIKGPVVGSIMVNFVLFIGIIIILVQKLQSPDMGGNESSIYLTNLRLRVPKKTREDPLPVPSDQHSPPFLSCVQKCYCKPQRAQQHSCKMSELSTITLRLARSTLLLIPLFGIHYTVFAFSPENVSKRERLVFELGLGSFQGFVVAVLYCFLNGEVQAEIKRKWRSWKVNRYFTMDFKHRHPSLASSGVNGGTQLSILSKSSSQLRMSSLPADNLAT

| Compound | IC50 (human PAC1 receptor) [nM] | IC50 (rat PAC1 receptor) [nM] |
| --- | --- | --- |
| CC[C@H](C)[C@H](NC(=O)[C@H](C)NC(=O)[C@H](CCCCN)NC(=O)[C@H](CCCNC(=N)N)NC(=O)[C@H](Cc1ccccc1)NC(=O)[C@H](CCC(N)=O)NC(=O)[C@@H]1CSSC[C@H](N)C(=O)N[C@@H](CC(=O)O)C(=O)N[C@@H](C)C(=O)N[C@@H]([C@@H](C)O)C(=O)N1)C(=O)N[C@@H](CC(=O)O)C(=O)N[C@@H](CC(=O)O)C(=O)N[C@H]1CSSC[C@@H](C(=O)N[C@@H](CCSC)C(=O)N[C@@H](CCCCN)C(=O)N[C@@H](CCC(N)=O)C(=O)N[C@@H](CCCCN)C(=O)N[C@@H](CCCCN)C(=O)N[C@@H](CCCCN)C(=O)N[C@@H](CCC(=O)O)C(=O)N[C@@H](Cc2c[nH]c3ccccc23)C(=O)N[C@@H](CCCCN)C(=O)N[C@@H](C)C(=O)NCC(=O)N[C@@H](Cc2c[nH]cn2)C(=O)O)NC(=O)[C@H](C)NC(=O)[C@H](CCCCN)NC(=O)[C@H](Cc2ccccc2)NC(=O)[C@H](C(C)C)NC(=O)[C@H](CO)NC(=O)[C@H](CO)NC(=O)[C@H](Cc2c[nH]cn2)NC(=O)[C@H](Cc2c[nH]cn2)NC(=O)[C@H](C)NC(=O)[C@H](CCC(N)=O)NC(=O)[C@H](CCCNC(=N)N)NC(=O)[C@H](C(C)C)NC1=O [compound 75] (H-CDATCQFRKAIDDCVRQAHHSSVFKACMKQKKKEWKAGH-OH; disulfide 1-5, 14-27) | 0.01 to 1 | < 0.01 |
| GCDATCQFRKAIDDCAKQAHHSNVPGSVFKACMKQKKKEFKAGH (disulfide 2-6, 15-32) [compound 59] | 0.01 to 1 | 0.01 to 1 |
| CDATCQFRKAIDDCAKQAHHSNVPGSVFKLCMKQKKKEFKAG-NH2 (disulfide 1-5, 14-31) [compound 18] | 0.01 to 1 | < 0.01 |
| CDATCQFRKAIDDCLWWSQHSNVPGSVFKACMKQKKKEFKAG-NH2 (disulfide 1-5, 14-31) [compound 117] | 0.01 to 1 | 0.01 to 1 |
| CDATCQFRKAIDDCHLLAWHSNVPGSVFKACMKQKKKEFKAG-NH2 (disulfide 1-5, 14-31) [compound 76] | 0.01 to 1 | 0.01 to 1 |
| CDATCQFRKAIDDCDRQAHHSNVPGSVFKACMKQKKKEWKAG (disulfide 1-5, 14-31) [compound 81] | 1 to 100 | 0.01 to 1 |
| CDATCQFRKAIDDCYYRSWHANVPGSVFKACMKQKKKEWKAGN (disulfide 1-5, 14-31) [compound 62] | 1 to 100 | 0.01 to 1 |
| CDATCQFRKAIDDCARQAHHSNVPGSVFKACFKQKKKEWKAGH (disulfide 1-5, 14-31) [compound 39] | 0.01 to 1 | 0.01 to 1 |
| CC[C@H](C)[C@H](NC(=O)[C@H](C)NC(=O)[C@H](CCCCN)NC(=O)[C@H](CCCNC(=N)N)NC(=O)[C@H](Cc1ccccc1)NC(=O)[C@H](CCC(N)=O)NC(=O)[C@@H]1CSSC[C@H](N)C(=O)N[C@@H](CC(=O)O)C(=O)N[C@@H](C)C(=O)N[C@@H]([C@@H](C)O)C(=O)N1)C(=O)N[C@@H](CC(=O)O)C(=O)N[C@@H](CC(=O)O)C(=O)N[C@H]1CSSC[C@@H](C(=O)N[C@@H](CCSC)C(=O)N[C@@H](CCCCN)C(=O)N[C@@H](CCC(N)=O)C(=O)N[C@@H](CCCCN)C(=O)N[C@@H](CCCCN)C(=O)N[C@@H](CCCCN)C(=O)N[C@@H](CCC(=O)O)C(=O)N[C@@H](Cc2ccccc2)C(=O)N[C@@H](CCCCN)C(N)=O)NC(=O)[C@H](CCC(=O)O)NC(=O)[C@H](CCCCN)NC(=O)[C@H](Cc2ccccc2)NC(=O)[C@H](C(C)C)NC(=O)[C@H](CO)NC(=O)[C@H](CO)NC(=O)[C@H](Cc2c[nH]cn2)NC(=O)[C@H](Cc2c[nH]cn2)NC(=O)[C@H](C)NC(=O)[C@H](CCC(N)=O)NC(=O)[C@H](CCCCN)NC(=O)[C@H](CC(=O)O)NC1=O [compound 223] | < 0.01 | 1 to 100 |
| CDATCHFRKAIDDCYYRSWHSNVPGSVFKACMKQHKKRWRAG-NH2 (disulfide 1-5, 14-31) [compound 71] | 0.01 to 1 | 0.01 to 1 |
| CDATCQFRKAIDDCWMLSWHANVPGSVFKACMKQKKKEFKAGH (disulfide 1-5, 14-31) [compound 111] | 0.01 to 1 | 0.01 to 1 |
| CDATCQFRKAIDDCQKQAHHSNVPGSVFKACMKQKKKEFKAQ (disulfide 1-5, 14-31) [compound 96] | 1 to 100 | 0.01 to 1 |
| CDATCQFRKAIDDCYYRSKHSNVPGSVFKACMKQKKKEFKAG-NH2 (disulfide 1-5, 14-31) [compound 43] | 0.01 to 1 | < 0.01 |
| CDATCQFRKAIDDCMWYSRHSNVPGSVFKACMKQKKKEFKAG-NH2 (disulfide 1-5, 14-31) [compound 121] | 0.01 to 1 | 0.01 to 1 |
| CDATCQFRKAIDDCQKQAHHSNVPGSVFKACMKQKKKEFKAGHHHHHH (disulfide 1-5, 14-31) [compound 160] | 1 to 100 | 0.01 to 1 |
| CDATCQFRKAIDDCQKQAHHSNVPGSVFKACMKQKKKEFKAGW (disulfide 1-5, 14-31) [compound 145] | 0.01 to 1 | 0.01 to 1 |
| CDATCQFRKAIDDCQKQAHHSNVPGSVFKACVLQKKKEFKAG-NH2 (disulfide 1-5, 14-31) [compound 93] | 1 to 100 | 1 to 100 |
| CDATCQFRKAIDDCQKQAHHSNVPGSVFKTCMKQKKKEFKAG-NH2 (disulfide 1-5, 14-31) [compound 146] | 0.01 to 1 | 0.01 to 1 |
| CDATCQFRKAIDDCWMLSWHANVPGSVFKACMKQKKKEFKAG-NH2 (disulfide 1-5, 14-31) [compound 92] | 0.01 to 1 | 0.01 to 1 |
| CDATCQFRKAIDDCMWFAWHSNVPGSVFKACMKQKKKEFKAG-NH2 (disulfide 1-5, 14-31) [compound 122] | 0.01 to 1 | 0.01 to 1 |
| CC[C@H](C)[C@H](NC(=O)[C@H](C)NC(=O)[C@H](CCCCN)NC(=O)[C@H](CCCNC(=N)N)NC(=O)[C@H](Cc1ccccc1)NC(=O)[C@H](CCC(N)=O)NC(=O)[C@@H]1CSSC[C@H](N)C(=O)N[C@@H](CC(=O)O)C(=O)N[C@@H](C)C(=O)N[C@@H]([C@@H](C)O)C(=O)N1)C(=O)N[C@@H](CC(=O)O)C(=O)N[C@@H](CC(=O)O)C(=O)N[C@H]1CSSC[C@@H](C(=O)N[C@@H](CCSC)C(=O)N[C@@H](CCCCN)C(=O)N[C@@H](CCC(N)=O)C(=O)N[C@@H](CCCCN)C(=O)N[C@@H](CCCCN)C(=O)N[C@@H](CCCCN)C(=O)N[C@@H](CCC(=O)O)C(=O)N[C@@H](Cc2ccccc2)C(=O)N[C@@H](CCCCN)C(=O)N[C@@H](C)C(=O)NCC(N)=O)NC(=O)[C@H](C)NC(=O)[C@H](CCCCN)NC(=O)[C@H](Cc2ccccc2)NC(=O)[C@H](CO)NC(=O)[C@H](CO)NC(=O)[C@H](Cc2c[nH]cn2)NC(=O)[C@H](Cc2c[nH]c3ccccc23)NC(=O)[C@H](CO)NC(=O)[C@H](CCCNC(=N)N)NC(=O)[C@H](Cc2ccc(O)cc2)NC(=O)[C@H](Cc2ccc(O)cc2)NC1=O [compound 63] (H-CDATCQFRKAIDDCYYRSWHSSFKACMKQKKKEFKAG-NH2; disulfide 1-5, 14-26) | 0.01 to 1 | 0.01 to 1 |
